Experimental findings from US10314308B2, “Microbiocidal benzoxaboroles” (SYNGENTA PARTICIPATIONS AG, priority 2015, dated 2019) are described below.

The subject of data set [1] is Glomerella Lagenarium(Colletotrichum Ladenarium). Kind of data set: Glomerella lagenarium (Colletotrichum lagenarium) / liquid culture (anthracnose). The following applies: PDB potato dextrose broth, 24° C., 3-4 days after application, read-out: disease control (inhibition of growth, photometrically). Type of data set: cell-based. Put shortly: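 Compound dissolved in DMSO was combined with potato dextrose broth carrying conidia taken directly from cryogenic storage. Photometric growth inhibition readings were taken after 3–4 days of incubation at 24 °C.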

Data set [2] relates to Thanatephorus Cucumeris(Rhizoctonia Solani). Kind of data set: Thanatephorus cucumeris (Rhizoctonia solani) / liquid culture (foot rot, damping-off). The conditions noted are these: PDB potato dextrose broth, 24° C., 3-4 days after application, read-out: disease control (inhibition of growth, photometrically). The class given is cell-based. Put shortly: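 Photometric growth-inhibition read 3-4 days after treatment at 24° C. Compounds applied from DMSO at 200 ppm, then fungal mycelium fragments in PDB broth added.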

For data set [3], the system named is Monographella Nivalis(Microdochium Nivale). The experiment in a line: Monographella nivalis (Microdochium nivale) / liquid culture (foot rot cereals). The class given is cell-based. The conditions noted are these: PDB potato dextrose broth, 24° C., 4-5 days after application, read-out: disease control (inhibition of growth, photometrically). Put shortly: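 Growth inhibition measured photometrically after 4-5 days at 24° C. Test compound in DMSO was combined with nutrient broth (PDB) carrying conidia taken directly from cryogenic storage.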

The test system of data set [4] is Mycosphaerella Arachidis(Cercospora Arachidicola). Kind of data set: Mycosphaerella arachidis (Cercospora arachidicola) / liquid culture (early leaf spot). The class given is cell-based. The following applies: PDB potato dextrose broth, 24° C., 4-5 days after application, read-out: disease control (inhibition of growth, photometrically). The method, boiled down: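 Growth inhibition was read photometrically 4-5 days post-application, following incubation at 24 °C. Test compounds in DMSO were combined with fungal spores from cryogenic storage suspended in potato dextrose broth.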

Another data set has as its system Sclerotinia Sclerotiorum. The experiment in a line: Sclerotinia sclerotiorum / liquid culture (cottony rot). Type of data set: cell-based. The conditions noted are these: PDB potato dextrose broth, 24° C., 3-4 days after application, read-out: disease control (inhibition of growth, visually). The method, boiled down: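 Growth inhibition was read by eye 3-4 days post-application at 24° C. Compounds (DMSO solution) were combined with potato dextrose broth seeded with mycelia fragments from a newly grown liquid culture.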

For a further data set, the system named is Fusarium Culmorum. The experiment in a line: microbe, parasite or virus in culture. The class given is cell-based. The conditions noted are these: read-out: disease control (inhibition of growth, photometrically).
In the next data set the test system is Plasmopara Viticola. Kind of data set: whole plant or invertebrate. The conditions noted are these: foliar, read-out: disease control. The class given is in vivo.
In a further data set the test system is Gaeumannomyces Graminis. The experiment in a line: Gaeumannomyces graminis / liquid culture (take-all of cereals). The class given is cell-based. The following applies: PDB potato dextrose broth, 24° C., 4-5 days after application, read-out: disease control (inhibition of growth, photometrically). The method, boiled down: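 Liquid-culture growth assay: compound delivered as DMSO solution, then fungal inoculum in potato dextrose broth added. Photometric read of growth inhibition after 4-5 days at 24° C.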

The test system of another data set is Pythium Ultimum. Kind of data set: Pythium ultimum / liquid culture (seedling damping off). The class given is cell-based. The following applies: Globisporangium ultimum, potato dextrose broth, 24° C., 2-3 days after application, read-out: disease control (inhibition of growth, photometrically).
Data set [5] relates to Phaeosphaeria Nodorum (Septoria Nodorum). The experiment in a line: Phaeosphaeria nodorum (Septoria nodorum) / wheat / leaf disc preventative (glume blotch). Type of data set: in vivo. The following applies: Parastagonospora nodorum, foliar, wheat leaf segments cv Kanzler, inoculated 2 days after application, assessed 5-7 days after application, read-out: disease control. Here is the method: 5 Phaeosphaeria Nodorum (Septoria Nodorum)/Wheat/Leaf Disc Preventative (Glume Blotch) Wheat leaf segments cv Kanzler were placed on agar in a 24-well plate and sprayed with formulated test compound diluted in water. The leaf disks were inoculated with a spore suspension of the fungus 2 days after application. The inoculated test leaf disks were incubated at 20° C. and 75% relative humidity under a light regime of 12/12 h (light/dark) in a climate cabinet and the activity of a compound was assessed as percent disease control compared to untreated when an appropriate level of disease damage appears in untreated check leaf disks (5-7 days after application).

Data set [6] concerns Puccinia Recondita f. sp. Tritici. Kind of data set: Puccinia recondita f. sp. tritici / wheat / leaf disc preventative (brown rust). The following applies: foliar, wheat leaf segments cv Kanzler, inoculated 1 day after application, assessed 7-9 days after application, read-out: disease control. Type of data set: in vivo. On the procedure:
3 Puccinia Recondita f. sp. Tritici/Wheat/Leaf Disc Preventative (Brown Rust) Wheat leaf segments cultivated variety (cv) Kanzler were placed on agar in 24-well plates and sprayed with formulated test compound diluted in water. The leaf disks were inoculated with a spore suspension of the fungus 1 day after application. The inoculated leaf segments were incubated at 19° C. and 75% relative humidity under a light regime of 12/12 h (light/dark) in a climate cabinet and the activity of a compound was assessed as percent disease control compared to untreated when an appropriate level of disease damage appears in untreated check leaf segments (7-9 days after application).

For data set [7], the system named is Botryotinia Fuckeliana(Botrytis Cinerea). Kind of data set: Botryotinia fuckeliana (Botrytis cinerea) / liquid culture (gray mould). The class given is cell-based. The conditions noted are these: Vogels broth, 24° C., 3-4 days after application, read-out: disease control (inhibition of growth, photometrically). On the procedure:
9 Botryotinia Fuckeliana(Botrytis Cinerea)/Liquid Culture (Gray Mould) Conidia of the fungus from cryogenic storage were directly mixed into nutrient broth (Vogels broth). After placing a DMSO solution of test compound into a 96-well microtiter plate, the nutrient broth containing the fungal spores was added. The test plates were incubated at 24° C. and the inhibition of growth was determined photometrically 3-4 days after application.

The subject of data set [8] is Mycosphaerella Graminicola(Septoria Tritici). Kind of data set: Mycosphaerella graminicola (Septoria tritici) / liquid culture (Septoria blotch). Type of data set: cell-based. The conditions noted are these: Zymoseptoria tritici, PDB potato dextrose broth, 24° C., 4-5 days after application, read-out: disease control (inhibition of growth, photometrically). The method, boiled down: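 Growth inhibition measured by photometry 4-5 days post-application, at 24 °C, in liquid culture of spores taken straight from cryogenic storage into potato dextrose broth, with test compound supplied in DMSO.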

Another data set deals with Phytophthora Infestans. The experiment in a line: whole plant or invertebrate. The following applies: in Solanum lycopersicum, foliar, read-out: disease control. Type of data set: in vivo.

One may read the inhibition as the change of the read-out against control, counted positive when it falls. Usually melting point stands for the temperature, or range, at which the solid turns liquid. Take `OB1OCc2cc(Cl)c(-c3cccs3)cc21` [Compound 3]: the melting point was 125 to 135 °C. Besides, the inhibition at 20 ppm in data set [1] was ≥ 80%. Further, in data set [2], the inhibition at 20 ppm was ≥ 80%. The inhibition at 20 ppm in [3] is ≥ 80%. For the same molecule, the inhibition at 20 ppm in data set [4] is ≥ 80%. Moreover, the inhibition at 20 ppm in the data set with Sclerotinia Sclerotiorum is ≥ 80%. Also, the inhibition at 20 ppm in the data set with Fusarium Culmorum is ≥ 80%. Moreover, the pest or weed control at 200 ppm in the data set with Plasmopara Viticola was ≥ 80%. Also, the inhibition at 20 ppm with Gaeumannomyces Graminis was ≥ 80%. Besides, the inhibition at 20 ppm in the data set on Pythium Ultimum is ≥ 80%. Also, the pest or weed control at 200 ppm in data set [5] is ≥ 80%. Also, the pest or weed control at 200 ppm in data set [6] is ≥ 80%. Besides, the inhibition at 20 ppm in data set [7] is ≥ 80%. Moreover, the inhibition at 20 ppm in data set [8] is ≥ 80%.

On to `Cn1cccc1-c1cc2c(cc1Cl)COB2O` [Compound 4], for which the melting point was in the range of 195 to 202 °C. Further, the inhibition at 20 ppm in data set [1] was ≥ 80%. The inhibition at 20 ppm in [3] was ≥ 80%. Besides, in [4], the inhibition at 20 ppm is ≥ 80%. Moreover, the inhibition at 20 ppm in the data set on Fusarium Culmorum was ≥ 80%. Further, the pest or weed control at 200 ppm in the data set with Plasmopara Viticola is ≥ 80%. In addition, the inhibition at 20 ppm in the data set with Gaeumannomyces Graminis is ≥ 80%. The inhibition at 20 ppm with Pythium Ultimum is ≥ 80%. The pest or weed control at 200 ppm in data set [5] was ≥ 80%. For the same molecule, the pest or weed control at 200 ppm in data set [6] was ≥ 80%. Further, the inhibition at 20 ppm in [8] was ≥ 80%.

Take `OB1OCc2cc(F)c(-c3ccc(Cl)nc3)cc21` [Compound 13, 2-chloro-5-(5-fluoro-1-hydroxy-3H-2,1-benzoxaborol-6-yl)pyridine]: the melting point was 213 to 215 °C. Moreover, the inhibition at 20 ppm in data set [3] is ≥ 80%. For the same molecule, the pest or weed control at 200 ppm with Plasmopara Viticola was ≥ 80%. For the same molecule, in the data set with Phytophthora Infestans, the pest or weed control at 200 ppm was ≥ 80%. Further, the inhibition at 20 ppm in the data set with Gaeumannomyces Graminis was ≥ 80%. The inhibition at 20 ppm in the data set with Pythium Ultimum was ≥ 80%.

As to `Cc1csc(-c2cc3c(cc2Cl)COB3O)n1` [Compound 15], the inhibition at 20 ppm (in data set [1]; in data set [2]; in data set [3]; in [4]; in the data set on Sclerotinia Sclerotiorum; in the data set on Fusarium Culmorum) was ≥ 80% throughout. For the same molecule, the inhibition at 20 ppm (in the data set on Gaeumannomyces Graminis; with Pythium Ultimum; in data set [8]) was ≥ 80% throughout. Moreover, the pest or weed control at 200 ppm with Plasmopara Viticola and in the data set on Phytophthora Infestans was ≥ 80% throughout.

`Cc1ncsc1-c1cc2c(cc1Cl)COB2O` [Compound 16]: the inhibition at 20 ppm (in [1]; in [3]; in data set [4]; with Sclerotinia Sclerotiorum; in the data set on Fusarium Culmorum; in the data set with Gaeumannomyces Graminis) was ≥ 80% each time. Further, the inhibition at 20 ppm (in the data set on Pythium Ultimum; in data set [7]; in data set [8]) was ≥ 80% in each case. Moreover, the pest or weed control at 200 ppm with Plasmopara Viticola and in the data set with Phytophthora Infestans was ≥ 80% in each case.

In the case of `CC1N=C(c2cc3c(cc2Cl)COB3O)S/C1=N/O` (stereo not drawn) [Compound 17], the inhibition at 20 ppm (in data set [1]; in [3]; in data set [4]; in the data set with Sclerotinia Sclerotiorum; with Fusarium Culmorum; in the data set on Gaeumannomyces Graminis) was ≥ 80% in each case. For the same molecule, the inhibition at 20 ppm (in the data set on Pythium Ultimum; in data set [7]; in [8]) was ≥ 80% each time. Further, the pest or weed control at 200 ppm in the data set with Phytophthora Infestans is ≥ 80%.

Turning to `O/N=C/c1ccc(-c2cc3c(cc2F)COB3O)o1` [Compound 27], the melting point fell in the range of 200 to 220 °C. In data set [1], the inhibition at 20 ppm is ≥ 80%. Further, the inhibition at 20 ppm in data set [3] is ≥ 80%. The inhibition at 20 ppm in [4] is ≥ 80%. Besides, the pest or weed control at 200 ppm in the data set with Plasmopara Viticola was ≥ 80%. Moreover, in the data set with Phytophthora Infestans, the pest or weed control at 200 ppm is ≥ 80%. Further, the inhibition at 20 ppm with Pythium Ultimum is ≥ 80%.

For `CC(=O)c1ccc(-c2cc3c(cc2Cl)COB3O)o1` [Compound 39], the inhibition at 20 ppm (in [1]; in [2]; in data set [3]; in data set [4]; with Fusarium Culmorum; with Gaeumannomyces Graminis) was ≥ 80% throughout. Moreover, the inhibition at 20 ppm with Pythium Ultimum is ≥ 80%. The pest or weed control at 200 ppm in the data set on Plasmopara Viticola and in the data set with Phytophthora Infestans was ≥ 80% throughout.

In the case of `OB1OCc2cc(Cl)c(-c3ccsc3Cl)cc21` [Compound 88], the inhibition at 20 ppm (in data set [1]; in [2]; in [3]; in [4]; with Sclerotinia Sclerotiorum; in the data set with Fusarium Culmorum) was ≥ 80% throughout. Besides, the inhibition at 20 ppm (in the data set with Gaeumannomyces Graminis; with Pythium Ultimum; in data set [8]) was ≥ 80% in each case. Besides, the pest or weed control at 200 ppm (in the data set on Plasmopara Viticola; in data set [5]; in data set [6]) was ≥ 80% in each case.

Turning to `OB1OCc2cc(Cl)c(-c3cncc(C(F)(F)F)c3)cc21` [Compound 91], the inhibition at 20 ppm (in data set [1]; in [2]; in [3]; in data set [4]; in the data set on Sclerotinia Sclerotiorum; in the data set on Fusarium Culmorum) was ≥ 80% throughout. The inhibition at 20 ppm (in the data set on Gaeumannomyces Graminis; in the data set on Pythium Ultimum; in data set [7]; in [8]) was ≥ 80% throughout. Moreover, the pest or weed control at 200 ppm (in the data set on Plasmopara Viticola; in [5]; in data set [6]) was ≥ 80% in each case.

`COc1c(-c2nnco2)ccc2c1B(O)OC2` [Compound 93]: the melting point lay in the range of 176 to 178 °C. Further, the inhibition at 20 ppm in data set [1] is ≥ 80%. Moreover, the inhibition at 20 ppm in data set [4] was ≥ 80%. The pest or weed control at 200 ppm in the data set with Phytophthora Infestans was ≥ 80%. Besides, the inhibition at 20 ppm with Gaeumannomyces Graminis is ≥ 80%. The inhibition at 20 ppm with Pythium Ultimum is ≥ 80%.

With `OB1OCc2cc(F)c(-c3nnco3)cc21` [Compound 95], the melting point lay within 237 to 239 °C. Further, in data set [1], the inhibition at 20 ppm is ≥ 80%. The inhibition at 20 ppm in data set [4] was ≥ 80%. For the same molecule, in the data set on Sclerotinia Sclerotiorum, the inhibition at 20 ppm is ≥ 80%. Moreover, in the data set on Phytophthora Infestans, the pest or weed control at 200 ppm is ≥ 80%. Also, the inhibition at 20 ppm with Gaeumannomyces Graminis was ≥ 80%. The inhibition at 20 ppm with Pythium Ultimum was ≥ 80%.
